Here are results for 7 compounds from PubChem BioAssay AID1745844 (Carcinogenic Potency Database (CPDB), 2022).

Active and inactive are the calls of the source. No rule for the calls is given here.

The data set relates to rodent lifetime carcinogenesis bioassay, tumor incidence TD50. The data set is described as follows: chronic cancer bioassays in animals – CPDB, compiled studies (AID 1745844).
The mark [1] stands for this setting: mouse, strain B6C3F1, females, by gavage, site: forestomach, lesion: several types, types named in the paper, dosed 104 weeks, study length 107 weeks.
The mark [2] stands for this setting: mouse, strain B6C3F1, males, by gavage, site: forestomach, lesion: several types, types named in the paper, dosed 104 weeks, study length 107 weeks.
Where [3] appears, read: mouse, strain B6C3F1, males, by gavage, site: liver, lesion: several types, types named in the paper, dosed 104 weeks, study length 107 weeks.

A word on the TD50: it is the dose at which the toxic effect under study appears in half of the subjects. On to `CC1CCC(C(C)C)C(O)C1` (configuration not stated), for which the carcinogen call is “negative (inactive)” (mouse, strain B6C3F1, females, in feed, site: any site (literature study), lesion: several types, types named in the paper, dosed 103 weeks, study length 104 weeks) and “negative (inactive)” (rat, strain Fischer 344, females, in feed, site: any site (literature study), lesion: several types, types named in the paper, dosed 103 weeks, study length 105 weeks). For the same compound, the TD50 is, setting by setting: (mouse, strain B6C3F1, females, in feed, site: liver, lesion: hepatocellular adenoma + hepatocellular carcinoma + neoplastic nodule, dosed 103 weeks, study length 104 weeks) 5190 mg/kg/day; (mouse, strain B6C3F1, females, in feed, site: lung, lesion: alveolar/bronchiolar adenoma + alveolar/bronchiolar carcinoma, dosed 103 weeks, study length 104 weeks) 3170 mg/kg/day; (mouse, strain B6C3F1, males, in feed, site: any site (literature study), lesion: several types, types named in the paper, dosed 103 weeks, study length 104 weeks) 2750 mg/kg/day (inactive); (mouse, strain B6C3F1, males, in feed, site: liver, lesion: hepatocellular adenoma + hepatocellular carcinoma + neoplastic nodule, dosed 103 weeks, study length 104 weeks) 1960 mg/kg/day; (rat, strain Fischer 344, males, in feed, site: any site (literature study), lesion: several types, types named in the paper, dosed 103 weeks, study length 105 weeks) 1410 mg/kg/day (inactive); (rat, strain Fischer 344, males, in feed, site: liver, lesion: hepatocellular adenoma + hepatocellular carcinoma + neoplastic nodule, dosed 103 weeks, study length 105 weeks) 5690 mg/kg/day.
Consider `ClCc1ccccc1`, for which the TD50 (mouse, strain B6C3F1, females, by gavage, site: forestomach, lesion: carcinoma, dosed 104 weeks, study length 107 weeks) is 445 mg/kg/day; the TD50 under setting [1] is 81 mg/kg/day; the TD50 (mouse, strain B6C3F1, females, by gavage, site: lung, lesion: several types, types named in the paper, dosed 104 weeks, study length 107 weeks) worked out at 337 mg/kg/day; the TD50 (mouse, strain B6C3F1, males, by gavage, site: all sites, lesion: all vascular tumors, dosed 104 weeks, study length 107 weeks) is 454 mg/kg/day; the TD50 (mouse, strain B6C3F1, males, by gavage, site: forestomach, lesion: carcinoma, dosed 104 weeks, study length 107 weeks) is 221 mg/kg/day; the TD50 under setting [2] is 49.6 mg/kg/day. The TD50 turned out to be 225 mg/kg/day under setting [3]; 330 mg/kg/day (rat, strain Fischer 344, females, by gavage, site: liver, lesion: neoplastic nodule, dosed 104 weeks, study length 107 weeks); 40.6 mg/kg/day (rat, strain Fischer 344, females, by gavage, site: thyroid gland, lesion: several types, types named in the paper, dosed 104 weeks, study length 107 weeks).
For the compound `c1ccc(C2CO2)cc1` (configuration not stated), the TD50 was 172 mg/kg/day under setting [1]; 505 mg/kg/day (mouse, strain B6C3F1, females, by gavage, site: forestomach, lesion: squamous-cell carcinoma, dosed 104 weeks, study length 107 weeks); 460 mg/kg/day (mouse, strain B6C3F1, females, by gavage, site: forestomach, lesion: squamous-cell papilloma, dosed 104 weeks, study length 107 weeks); 5960 mg/kg/day (mouse, strain B6C3F1, females, by gavage, site: liver, lesion: several types, types named in the paper, dosed 104 weeks, study length 107 weeks); 90 mg/kg/day under setting [2]; 475 mg/kg/day (mouse, strain B6C3F1, males, by gavage, site: forestomach, lesion: squamous-cell carcinoma, dosed 104 weeks, study length 107 weeks). The TD50 runs as follows: (mouse, strain B6C3F1, males, by gavage, site: forestomach, lesion: squamous-cell papilloma, dosed 104 weeks, study length 107 weeks) 215 mg/kg/day; under setting [3], 223 mg/kg/day; (rat, strain Fischer 344, females, by gavage, site: forestomach, lesion: several types, types named in the paper, dosed 104 weeks, study length 107 weeks) 42.9 mg/kg/day; (rat, strain Fischer 344, females, by gavage, site: forestomach, lesion: squamous-cell carcinoma, dosed 104 weeks, study length 107 weeks) 114 mg/kg/day; (rat, strain Fischer 344, females, by gavage, site: forestomach, lesion: squamous-cell papilloma, dosed 104 weeks, study length 107 weeks) 217 mg/kg/day; (rat, strain Fischer 344, males, by gavage, site: forestomach, lesion: several types, types named in the paper, dosed 104 weeks, study length 107 weeks) 30.7 mg/kg/day. The TD50 (rat, strain Fischer 344, males, by gavage, site: forestomach, lesion: squamous-cell carcinoma, dosed 104 weeks, study length 107 weeks) is 81.6 mg/kg/day; the TD50 (rat, strain Fischer 344, males, by gavage, site: forestomach, lesion: squamous-cell papilloma, dosed 104 weeks, study length 107 weeks) is 146 mg/kg/day; the TD50 (rat, strain Fischer 344, males, by gavage, site: liver, lesion: neoplastic nodule, dosed 104 weeks, study length 107 weeks) worked out at 10300 mg/kg/day; the TD50 (rat, strain Sprague-Dawley, females, by gavage, site: any site (literature study), lesion: malignant tumor, dosed 52 weeks, study length 156 weeks) came out at 166 mg/kg/day; the TD50 (rat, strain Sprague-Dawley, females, by gavage, site: any site (literature study), lesion: several types, types named in the paper, dosed 52 weeks, study length 156 weeks) amounted to 164 mg/kg/day; the TD50 (rat, strain Sprague-Dawley, females, by gavage, site: forestomach, lesion: benign tumor, dosed 52 weeks, study length 156 weeks) was 503 mg/kg/day. Also, the TD50 is 96.5 mg/kg/day (rat, strain Sprague-Dawley, females, by gavage, site: forestomach, lesion: several types, types named in the paper, dosed 52 weeks, study length 156 weeks); 129 mg/kg/day (rat, strain Sprague-Dawley, females, by gavage, site: forestomach, lesion: squamous-cell carcinoma, in situ, dosed 52 weeks, study length 156 weeks); 301 mg/kg/day (rat, strain Sprague-Dawley, females, by gavage, site: forestomach, lesion: squamous-cell carcinoma, invasive, dosed 52 weeks, study length 156 weeks); 102 mg/kg/day (rat, strain Sprague-Dawley, females, by gavage, site: forestomach, lesion: squamous-cell carcinoma, dosed 52 weeks, study length 156 weeks); 189 mg/kg/day (rat, strain Sprague-Dawley, males, by gavage, site: any site (literature study), lesion: malignant tumor, dosed 52 weeks, study length 156 weeks); 191 mg/kg/day (rat, strain Sprague-Dawley, males, by gavage, site: any site (literature study), lesion: several types, types named in the paper, dosed 52 weeks, study length 156 weeks). In addition, the TD50 was 354 mg/kg/day (rat, strain Sprague-Dawley, males, by gavage, site: forestomach, lesion: benign tumor, dosed 52 weeks, study length 156 weeks); 99.6 mg/kg/day (rat, strain Sprague-Dawley, males, by gavage, site: forestomach, lesion: several types, types named in the paper, dosed 52 weeks, study length 156 weeks); 140 mg/kg/day (rat, strain Sprague-Dawley, males, by gavage, site: forestomach, lesion: squamous-cell carcinoma, in situ, dosed 52 weeks, study length 156 weeks); 267 mg/kg/day (rat, strain Sprague-Dawley, males, by gavage, site: forestomach, lesion: squamous-cell carcinoma, invasive, dosed 52 weeks, study length 156 weeks); 63 mg/kg/day (rat, strain Sprague-Dawley, males, by gavage, site: forestomach, lesion: squamous-cell carcinoma, dosed 52 weeks, study length 156 weeks).
As to `ClCOCCCCCCOCCl`, the carcinogen call (mouse, strain Ha/ICR, females, i.p., site: abdomen, lesion: sarcoma, dosed 81 weeks, study length 81 weeks) was “negative (inactive)”.
Regarding `Cc1cc2ncccc2c2nc(N)n(C)c12`, the TD50 is 50 mg/kg/day (mouse, strain C57BL/6NCrj, females, in feed, site: cecum, lesion: adenocarcinoma, dosed 85 weeks, study length 85 weeks); 92.8 mg/kg/day (mouse, strain C57BL/6NCrj, females, in feed, site: colon, lesion: adenocarcinoma, dosed 85 weeks, study length 85 weeks); 32.3 mg/kg/day (mouse, strain C57BL/6NCrj, females, in feed, site: large intestine, lesion: adenocarcinoma, dosed 85 weeks, study length 85 weeks); 20.7 mg/kg/day (mouse, strain C57BL/6NCrj, females, in feed, site: liver, lesion: fibrosarcoma, dosed 85 weeks, study length 85 weeks); 80 mg/kg/day (mouse, strain C57BL/6NCrj, females, in feed, site: liver, lesion: hepatocellular adenoma, dosed 85 weeks, study length 85 weeks); 62.1 mg/kg/day (mouse, strain C57BL/6NCrj, females, in feed, site: liver, lesion: hepatocellular carcinoma, dosed 85 weeks, study length 85 weeks). Further, the TD50 runs as follows: (mouse, strain CDF1, females, in feed, site: forestomach, lesion: several types, types named in the paper, dosed 91 weeks, study length 91 weeks) 10.7 mg/kg/day; (mouse, strain CDF1, females, in feed, site: forestomach, lesion: squamous-cell carcinoma, dosed 91 weeks, study length 91 weeks) 24.5 mg/kg/day; (mouse, strain CDF1, females, in feed, site: liver, lesion: hepatocellular carcinoma, dosed 91 weeks, study length 91 weeks) 65.6 mg/kg/day; (mouse, strain CDF1, females, in feed, site: liver, lesion: several types, types named in the paper, dosed 91 weeks, study length 91 weeks) 27.1 mg/kg/day; (mouse, strain CDF1, females, in feed, site: lung, lesion: several types, types named in the paper, dosed 91 weeks, study length 91 weeks) 25.1 mg/kg/day (inactive); (mouse, strain CDF1, males, in feed, site: forestomach, lesion: several types, types named in the paper, dosed 91 weeks, study length 91 weeks) 14.5 mg/kg/day. In addition, the TD50 (mouse, strain CDF1, males, in feed, site: forestomach, lesion: squamous-cell carcinoma, dosed 91 weeks, study length 91 weeks) was 22.4 mg/kg/day and the TD50 (mouse, strain CDF1, males, in feed, site: lung, lesion: several types, types named in the paper, dosed 91 weeks, study length 91 weeks) was 148 mg/kg/day (inactive).
Consider `CC(=O)CN(C)N=O`, for which the TD50 (rat, strain MRC, females, by gavage, site: esophagus, lesion: several types, types named in the paper, dosed 67 weeks, study length 76 weeks) was 0.16 mg/kg/day; the TD50 (rat, strain MRC, females, by gavage, site: liver, lesion: several types, types named in the paper, dosed 67 weeks, study length 76 weeks) is 0.268 mg/kg/day; the TD50 (rat, strain MRC, females, by gavage, site: nasal and paranasal cavity, lesion: several types, types named in the paper, dosed 67 weeks, study length 76 weeks) is 0.0167 mg/kg/day; the TD50 (rat, strain MRC, females, by gavage, site: pharynx, lesion: several types, types named in the paper, dosed 67 weeks, study length 76 weeks) was 0.0758 mg/kg/day; the TD50 (rat, strain MRC, males, by gavage, site: esophagus, lesion: several types, types named in the paper, dosed 51 weeks, study length 58 weeks) is 0.0642 mg/kg/day; the TD50 (rat, strain MRC, males, by gavage, site: liver, lesion: several types, types named in the paper, dosed 51 weeks, study length 58 weeks) was 0.252 mg/kg/day. The TD50 was 0.0178 mg/kg/day (rat, strain MRC, males, by gavage, site: nasal and paranasal cavity, lesion: several types, types named in the paper, dosed 51 weeks, study length 58 weeks); 0.942 mg/kg/day (rat, strain MRC, males, by gavage, site: nasopharynx, lesion: papilloma, dosed 51 weeks, study length 58 weeks); 0.023 mg/kg/day (rat, strain MRC, males, by gavage, site: pharynx, lesion: several types, types named in the paper, dosed 51 weeks, study length 58 weeks).
As to `CN(C)/C=N/c1nnc(/C=C/c2ccc([N+](=O)[O-])o2)o1`, the TD50 runs as follows: (rat, strain Sprague-Dawley, females, in feed, site: any site (literature study), lesion: several types, types named in the paper, dosed 46 weeks, study length 66 weeks) 20.6 mg/kg/day; (rat, strain Sprague-Dawley, females, in feed, site: duodenum, lesion: adenocarcinoma, dosed 46 weeks, study length 66 weeks) 336 mg/kg/day; (rat, strain Sprague-Dawley, females, in feed, site: duodenum, lesion: adenomatous polyp, dosed 46 weeks, study length 66 weeks) 336 mg/kg/day; (rat, strain Sprague-Dawley, females, in feed, site: forestomach, lesion: squamous-cell papilloma, dosed 46 weeks, study length 66 weeks) 221 mg/kg/day; (rat, strain Sprague-Dawley, females, in feed, site: lung, lesion: alveolar-cell carcinoma, dosed 46 weeks, study length 66 weeks) 683 mg/kg/day; (rat, strain Sprague-Dawley, females, in feed, site: mammary gland, lesion: adenocarcinoma, dosed 46 weeks, study length 66 weeks) 20.4 mg/kg/day. Besides, for the setting “rat, strain Sprague-Dawley, females, in feed, site: mammary gland, lesion: several types, types named in the paper, dosed 46 weeks, study length 66 weeks”, the TD50 is 22.4 mg/kg/day.
